Data as given in patent publication US11622965B2, “Methods for treating lymphoid malignancies” (ZHEJIANG DTRM BIOPHARMA CO. LTD., priority 2017, dated 2023).
Entries after “also recorded” stand apart in the source; their conditions may differ.

How the values were obtained:
[1] = system: 104 proteins (e.g., transporters, cell receptors, ion channels, and enzymes); experiment: off-target screenings against 104 proteins
From the text: (§1) Both patents are incorporated by reference herein in their entirety.

[2] = toxicokinetics in beagle dogs; assay type: in vivo
From the text: as §1

[3] = U.S. Phase Ia trial of Compound A monotherapy: pharmacokinetics; assay type: in vivo; conditions: human, plasma, oral, Compound A Plasma Level
Protocol: (§2) Studies on the 200 mg and 300 mg cohorts were conducted in a standard 3+3 design.
Drug-related adverse events (AEs), including DLT, non-hematologic AEs and hematologic AEs were recorded. […] The PK indexes of single dose administration included AUClast, AUCO-∞, Cmax, tmax, t1/2, CL/F and Vd/F. The PK indexes of steady state under continuous administration included AUCss, Cmax,ss and tmax,ss.

[4] = system: relapsed/refractory CLL and B-cell lymphomas; experiment: China and U.S. first-in-human monotherapy trials, overall conclusions
From the text: The primary endpoint of the trials was safety, while the secondary endpoints of the trials were anti-tumor activity and pharmacokinetic parameters. Patients enrolled in the trials met the following criteria: relapsed/refractory CLL and B-cell lymphoma with no available effective therapies, ≥18 years of age, and an Eastern Cooperative Oncology Group (ECOG) score≤1. […] The 3+3 dose-escalation method was used.
Relapsed/refractory B-cell lymphoma patients who met the aforementioned enrollment criteria were enrolled without randomization. […] The patients were required to stay in the hospital for 24 hours after the first dosing. […] The first 28 days of treatment was considered DLT period.
as §2
The response rate, including the partial response and complete response rate, was defined according to the Revised International Working Group Criteria for non-Hodgkin's lymphoma (Cheson et al., J Clin Oncol 25:579-86 (2007)). Drug-related adverse events (AEs), including DLT, non-hematologic AEs and hematologic AEs were recorded. […] The PK indexes of single dose administration included AUClast, AUCO-∞, Cmax, tmax, t1/2, CL/F and Vd/F. The PK indexes of steady state under continuous administration included AUCss, Cmax,ss and tmax,ss.

SMILES: C=CC(=O)N1CC[C@@H](n2nc(-c3ccc(Oc4c(F)c(F)cc(F)c4F)cc3F)c3c(N)ncnc32)C1 [Compound A, 1-((R)-3-(4-amino-3-(2-fluoro-4-(2,3,5,6-tetrafluorophenoxy)phenyl)-1H-pyrazolo[3,4-d]pyrimidin-1-yl)pyrrolidin-1-yl)prop-2-en-1-one]
- off-target inhibitory activities [1]: no off-target inhibitory activities
- toxicokinetics properties [2]: Improved toxicokinetics properties
- concentration at 0 h ([3]; 50 mg, Day 1, 50 mg): 0 ng/mL
- concentration at 0.5 h ([3]; 50 mg, Day 1, 50 mg): 2.84 ng/mL
- concentration at 1 h ([3]; 50 mg, Day 1, 50 mg): 26.9 ng/mL
- concentration at 2 h ([3]; 50 mg, Day 1, 50 mg): 63.4 ng/mL
- concentration at 4 h ([3]; 50 mg, Day 1, 50 mg): 15.3 ng/mL
- concentration at 6 h ([3]; 50 mg, Day 1, 50 mg): 6.44 ng/mL
- concentration at 24 h ([3]; 50 mg, Day 1, 50 mg): 0 ng/mL
- concentration at 0 h ([3]; 100 mg, Day 1, 100 mg): 9.04 ng/mL
- concentration at 0.5 h ([3]; 100 mg, Day 1, 100 mg): 44.9 ng/mL
- concentration at 1 h ([3]; 100 mg, Day 1, 100 mg): 53.3 ng/mL
- concentration at 2 h ([3]; 100 mg, Day 1, 100 mg): 21.3 ng/mL
- concentration at 4 h ([3]; 100 mg, Day 1, 100 mg): 13.3 ng/mL
- concentration at 6 h ([3]; 100 mg, Day 1, 100 mg): 13.3 ng/mL
- concentration at 24 h ([3]; 100 mg, Day 1, 100 mg): 3.06 ng/mL
- concentration at 0 h ([3]; 200 mg, Day 1, 200 mg): 0 ng/mL
- concentration at 0.5 h ([3]; 200 mg, Day 1, 200 mg): 0 ng/mL
- cycles of monotherapy tolerated ([4]; China and U.S. trials): up to 23 cycles
- maximum tolerated dose ([4]; Compound A monotherapy, China and U.S. trials): had not been reached
- exposures to Compound A ([4]; all patients at all of the dose levels): adequate exposures
- efficacy in WM, MZL, and SLL/CLL patients ([4]; orally 50-400 mg once daily): preliminary efficacy was observed; also recorded: Efficacy of the Compound has also been observed
- safety and tolerability ([4]; patients with relapsed/refractory CLL and B-cell lymphomas, China and U.S. trials): safe and well tolerated
